Data: PubChem BioAssay (NCI)
Values after ≈ are worked out from the molar mass of the structure shown.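 Interpolation was linear, between the two tested concentrations surrounding the appropriate level; five concentrations were tested over 48 hours in 96-well plates. Abbreviation: GI50, concentration required for 50% inhibition of growth. The concentration for full growth arrest is given as TGI.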

How the values were obtained:
Experiment in all cases: NCI anticancer screen, dose series, 48 h
OVCAR-5 ovarian = tested on: OVCAR-5 ovarian
LOX IMVI melanoma = tested on: LOX IMVI melanoma
SN12C renal = tested on: SN12C renal
DU-145 prostate = tested on: DU-145 prostate
M14 melanoma = tested on: M14 melanoma
MDA-MB-435 = tested on: MDA-MB-435
NCI-H522 lung = tested on: NCI-H522 lung
HS 578T breast = tested on: HS 578T breast
NCI-H226 lung = tested on: NCI-H226 lung
BT-549 breast = tested on: BT-549 breast
UO-31 renal = tested on: UO-31 renal
CAKI-1 renal = tested on: CAKI-1 renal
U251 CNS = tested on: U251 CNS
SF-268 CNS = tested on: SF-268 CNS
SK-MEL-28 melanoma = tested on: SK-MEL-28 melanoma
NCI-H23 lung = tested on: NCI-H23 lung
IGROV1 ovarian = tested on: IGROV1 ovarian
HT29 colon = tested on: HT29 colon
SK-MEL-5 melanoma = tested on: SK-MEL-5 melanoma
HCT-15 colon = tested on: HCT-15 colon
OVCAR-3 ovarian = tested on: OVCAR-3 ovarian
MDA-MB-231 breast = tested on: MDA-MB-231 breast
786-0 renal = tested on: 786-0 renal
HCT-116 colon = tested on: HCT-116 colon
RXF 393 renal = tested on: RXF 393 renal
EKVX NSCLC = tested on: EKVX NSCLC
PC-3 prostate = tested on: PC-3 prostate
HCC-2998 colon = tested on: HCC-2998 colon
SK-OV-3 ovarian = tested on: SK-OV-3 ovarian
OVCAR-4 ovarian = tested on: OVCAR-4 ovarian
HL-60(TB) leukemia = tested on: HL-60(TB) leukemia
HOP-62 NSCLC = tested on: HOP-62 NSCLC
K-562 leukemia = tested on: K-562 leukemia
MALME-3M melanoma = tested on: MALME-3M melanoma
SW-620 colon = tested on: SW-620 colon
RPMI-8226 leukemia = tested on: RPMI-8226 leukemia
KM12 colon = tested on: KM12 colon
A498 renal = tested on: A498 renal
SF-295 CNS = tested on: SF-295 CNS
ACHN renal = tested on: ACHN renal
MCF7 breast = tested on: MCF7 breast
SF-539 CNS = tested on: SF-539 CNS
TK-10 renal = tested on: TK-10 renal
A549 NSCLC = tested on: A549 NSCLC
SNB-19 CNS = tested on: SNB-19 CNS
UACC-62 melanoma = tested on: UACC-62 melanoma
SNB-75 CNS = tested on: SNB-75 CNS
UACC-257 melanoma = tested on: UACC-257 melanoma
CCRF-CEM leukemia = tested on: CCRF-CEM leukemia
MOLT-4 leukemia = tested on: MOLT-4 leukemia
NCI/ADR-RES ovarian = tested on: NCI/ADR-RES ovarian
SK-MEL-2 melanoma = tested on: SK-MEL-2 melanoma
NCI-H460 lung = tested on: NCI-H460 lung
OVCAR-8 ovarian = tested on: OVCAR-8 ovarian
HOP-92 NSCLC = tested on: HOP-92 NSCLC

Compound `C=CC(=O)N1CCN(CCCn2c(=O)c(-c3c(Cl)c(OC)cc(OC)c3Cl)cc3cnc(NC)nc32)CC1` has a GI50 (OVCAR-5 ovarian) of 15.8 µM, a TGI (OVCAR-5 ovarian) of 33.5 µM and a GI50 (LOX IMVI melanoma) of 1.67 µM. For the same compound, the TGI (LOX IMVI melanoma) was 15 µM, the GI50 (SN12C renal) was 3.13 µM and the TGI (SN12C renal) was 16.2 µM. For the same compound, the GI50 (DU-145 prostate) was 2.69 µM, the TGI (DU-145 prostate) was 17.7 µM and the GI50 (M14 melanoma) was 1.67 µM. For the same compound, the TGI (M14 melanoma) was 16.8 µM, the GI50 (MDA-MB-435) was 2.74 µM and the TGI (MDA-MB-435) was 13.8 µM. For the same compound, the GI50 (NCI-H522 lung) was 2.51 µM, the TGI (NCI-H522 lung) was 14.6 µM and the GI50 (HS 578T breast) was 2.25 µM. It also gave a TGI (HS 578T breast) of 51.8 µM, a GI50 (NCI-H226 lung) of 0.0408 µM and a TGI (NCI-H226 lung) of 20.7 µM. The GI50 (BT-549 breast) was 0.681 µM, the TGI (BT-549 breast) was 16 µM and the GI50 (UO-31 renal) was 0.849 µM. The TGI (UO-31 renal) was 12.4 µM, the GI50 (CAKI-1 renal) was 0.782 µM and the TGI (CAKI-1 renal) was 13.6 µM. It also gave a GI50 (U251 CNS) of 2.57 µM, a TGI (U251 CNS) of 17 µM and a GI50 (SF-268 CNS) of 3.02 µM. The TGI (SF-268 CNS) was 21.3 µM, the GI50 (SK-MEL-28 melanoma) was 7.07 µM and the TGI (SK-MEL-28 melanoma) was 20.9 µM. For the same compound, the GI50 (NCI-H23 lung) was 5.57 µM, the TGI (NCI-H23 lung) was 20.9 µM and the GI50 (IGROV1 ovarian) was 0.888 µM. For the same compound, the TGI (IGROV1 ovarian) was 13.8 µM, the GI50 (HT29 colon) was 4.4 µM and the TGI (HT29 colon) was 20 µM. It also gave a GI50 (SK-MEL-5 melanoma) of 1.65 µM, a TGI (SK-MEL-5 melanoma) of 12.3 µM and a GI50 (HCT-15 colon) of 2.63 µM. It also gave a TGI (HCT-15 colon) of 15 µM, a GI50 (OVCAR-3 ovarian) of 5.6 µM and a TGI (OVCAR-3 ovarian) of 20.4 µM. For the same compound, the GI50 (MDA-MB-231 breast) was 3.52 µM, the TGI (MDA-MB-231 breast) was 14.6 µM and the GI50 (786-0 renal) was 1.32 µM. It also gave a TGI (786-0 renal) of 17.2 µM, a GI50 (HCT-116 colon) of 2.63 µM and a TGI (HCT-116 colon) of 17.1 µM. It also gave a GI50 (RXF 393 renal) of 1.33 µM, a TGI (RXF 393 renal) of 12.9 µM and a GI50 (EKVX NSCLC) of 4.38 µM. The TGI (EKVX NSCLC) was 19.6 µM, the GI50 (PC-3 prostate) was 2.5 µM and the TGI (PC-3 prostate) was 11.4 µM. For the same compound, the GI50 (HCC-2998 colon) was 10.9 µM, the TGI (HCC-2998 colon) was 24.6 µM and the GI50 (SK-OV-3 ovarian) was 2.18 µM. For the same compound, the TGI (SK-OV-3 ovarian) was 8.38 µM, the GI50 (OVCAR-4 ovarian) was 1.14 µM and the TGI (OVCAR-4 ovarian) was 25 µM. It also gave a GI50 (HL-60(TB) leukemia) of 2.8 µM, a TGI (HL-60(TB) leukemia) of 29 µM and a GI50 (HOP-62 NSCLC) of 5.56 µM. For the same compound, the TGI (HOP-62 NSCLC) was 19.3 µM, the GI50 (K-562 leukemia) was 5.96 µM and the TGI (K-562 leukemia) was over 100 µM. It also gave a GI50 (MALME-3M melanoma) of 1.7 µM, a TGI (MALME-3M melanoma) of 12.5 µM and a GI50 (SW-620 colon) of 4.07 µM. It also gave a TGI (SW-620 colon) of 34.2 µM, a GI50 (RPMI-8226 leukemia) of 1.03 µM and a TGI (RPMI-8226 leukemia) of 4.09 µM. For the same compound, the GI50 (KM12 colon) was 4.61 µM, the TGI (KM12 colon) was 19.9 µM and the TGI (A498 renal) was 1.81 µM. For the same compound, the GI50 (SF-295 CNS) was 3.54 µM, the TGI (SF-295 CNS) was 16.5 µM and the GI50 (ACHN renal) was 0.71 µM. It also gave a TGI (ACHN renal) of 11.6 µM, a GI50 (MCF7 breast) of 8.06 µM and a TGI (MCF7 breast) of 31.8 µM. It also gave a GI50 (SF-539 CNS) of 1.58 µM, a TGI (SF-539 CNS) of 9.5 µM and a GI50 (TK-10 renal) of 1.75 µM. The TGI (TK-10 renal) was 16.6 µM, the GI50 (A549 NSCLC) was 4.41 µM and the TGI (A549 NSCLC) was 19.7 µM. The GI50 (SNB-19 CNS) was 7.32 µM, the TGI (SNB-19 CNS) was 20.7 µM and the GI50 (UACC-62 melanoma) was 2.79 µM. It also gave a TGI (UACC-62 melanoma) of 15.1 µM, a TGI (SNB-75 CNS) of 9.36 µM and a GI50 (UACC-257 melanoma) of 3.8 µM. It also gave a TGI (UACC-257 melanoma) of 18 µM, a GI50 (CCRF-CEM leukemia) of 2.04 µM and a TGI (CCRF-CEM leukemia) of 11.9 µM. It also gave a GI50 (MOLT-4 leukemia) of 1.83 µM, a TGI (MOLT-4 leukemia) of over 100 µM and a GI50 (NCI/ADR-RES ovarian) of 7.12 µM. For the same compound, the TGI (NCI/ADR-RES ovarian) was 67.6 µM, the GI50 (SK-MEL-2 melanoma) was 1.13 µM and the TGI (SK-MEL-2 melanoma) was 6.31 µM. The GI50 (NCI-H460 lung) was 3.22 µM, the TGI (NCI-H460 lung) was 19 µM and the GI50 (OVCAR-8 ovarian) was 3.95 µM. It also gave a TGI (OVCAR-8 ovarian) of 22.9 µM.

`COc1cc(C=C2C(=O)NC(=O)NC2=O)ccc1OCc1ccccc1` showed a GI50 (LOX IMVI melanoma) of 87.8 µg/mL, a GI50 (BT-549 breast) of 33.9 µg/mL and a GI50 (UO-31 renal) of 61.2 µg/mL. The GI50 (NCI-H23 lung) was 69.9 µg/mL, the GI50 (HOP-92 NSCLC) was 71.8 µg/mL (≈ 204 µM) and the GI50 (RPMI-8226 leukemia) was 22.3 µg/mL. The GI50 (CCRF-CEM leukemia) was 79.7 µg/mL.
